{"source": "patent US20110251243A1", "about": "“Method and Kit for Assessing a Patient's Genetic Information, Lifestyle and Environment Conditions, and Providing a Tailored Therapeutic Regime” (priority 2005, published 2011)", "origin": "cited, not measured here", "key": {"[1]": {"details": "in the majority of people"}, "smokers": {"tested_on": "smokers", "details": "women with at least one Taq1A allele compared to women with both common alleles"}}, "note": "Like-named read-outs stand apart in the source and are kept apart here.", "data": [{"smiles": "CN1CCCC1c1cccnc1", "note": "(stereo not shown) [nicotine]", "values": [{"measurement": "share metabolized to cotinine by C-oxidation", "setting": "[1]", "result": "70% to 80"}]}, {"smiles": "CC(NC(C)(C)C)C(=O)c1cccc(Cl)c1", "note": "(stereo not shown) [bupropion]", "values": [{"measurement": "smoking status at 12 months", "setting": "smokers", "result": "more likely to be still smoking"}]}, {"smiles": "CCc1c2c(nc3ccc(OC(=O)N4CCC(N5CCCCC5)CC4)cc13)-c1cc3c(c(=O)n1C2)COC(=O)[C@]3(O)CC", "note": "[Irinotecan]", "values": [{"measurement": "chance of neutropenia", "setting": "patients; heterozygotes (6/7)", "result": 12.5, "unit": "%"}, {"measurement": "likelihood of neutropenia", "setting": "patients; homozygous 7/7 genotype in UGT1A1*28", "result": 50, "unit": "%"}, {"measurement": "fatality", "setting": "patients; in vivo", "result": "up to 5%"}, {"measurement": "severe diarrhoea and neutropenia, share of patients", "setting": "patients; in vivo", "result": "20-35%"}, {"measurement": "chance of neutropenia", "setting": "patients; wild type (homozygous 6/6 genotype)", "result": "roughly 0%"}]}]}
